row,Structure (SMILES),melting point
1,CCOC(=O)c1c(C(=O)OCC)c(-c2ccc(OC)c(OC)c2)c2c(OC)c(OC)c(OC)cc2c1O,138 to 140 °C
2,CCOC(=O)c1cnn(C)c1C(=O)Nc1ccn2nc(C(C)C)nc2c1,175 to 177 °C
3,CC(O)c1cc2c(o1)C(=O)c1cccc(O)c1C2=O (configuration not stated),148 to 149 °C
4,CCOC(=O)Cc1cccc2c(-c3ccc([N+](=O)[O-])cc3)nccc12,89.5 to 90.5 °C
5,CCOC(=O)C(Cc1ccccc1)NC(=O)COc1ccc(C2=NNC(=O)NC2)cc1C (configuration not stated),148 to 150 °C
6,COC1=CC2=CCC3C4CC(C)C(=O)C4(C)CCC3C2(C)CC1 (configuration not stated),149 to 167 °C
7,Cc1ccccc1NC(=O)Nc1ccc(-c2c(C(C)C)sc3ncnc(N)c23)cc1,233 to 234 °C
8,CCCC12CCC3C4CCC(=O)C=C4CCC3C1CCC2OCc1ccccc1 (configuration not stated),198 to 200 °C
9,CC1CCN(c2occ(C(C)(C)C)c2C#N)C1=O (configuration not stated),88 to 90 °C
10,CCN(CC)CCCC1CCCCN1C(=O)N1c2ccccc2C(=O)Nc2cccnc21 (configuration not stated),125 to 128 °C
11,CCCCCCC#CC(O)C1=Nc2ccccc2C(=O)C1C (configuration not stated),148 to 149 °C
12,CCOC(=O)C1=C(COCC(N)=S)NC(C)=C(C(=O)OC)C1c1ccccc1Cl (configuration not stated),149 to 150 °C
13,CC(C)(C)OC(=O)N1CCN(Cc2ccc(NC(=O)Oc3ccccc3)c(C(F)(F)F)c2)CC1,143 to 147 °C
14,CC(=O)N[C@H]1CC[C@H](CCN2CCN(c3nccc4c3OCC4)CC2)CC1,195 °C
15,O=C(CBr)c1cc(O)c(O)c([N+](=O)[O-])c1,138 to 140 °C
16,CC(CCC(=O)NCCCCCC(=O)NCCCCCO)C1CCC2C3C(O)CC4CC(O[Si](C)(C)C(C)(C)C)CCC4(C)C3CC(O)C12C (configuration not stated),146 to 148 °C
17,CC(C)c1ccc(N(Cc2ccc(OCC(F)(F)F)cc2)C(=O)Nc2c(C(C)C)cccc2C(C)C)cc1,138 °C
18,Cc1cc2c(c(C=O)c1C)C(C)(C)CCC2(C)C,74 to 80 °C
19,Cc1cccc(NC(=O)NCC(=O)N(CC(=O)OC(C)(C)C)c2ccccc2C)c1,133 °C
20,C=CCSc1cc(C(=O)O)cc(S(=O)(=O)Cl)c1Oc1ccccc1,160 to 162 °C
21,COc1cc(Nc2c(C#N)cnc3cc(C#CCCN(C)C)c(OC)cc23)c(Cl)cc1Cl,177 to 179 °C
22,CNC(=O)c1cccc(Nc2ncnc3[nH]cc(C(=O)c4cccc(F)c4)c23)c1,> 300 °C
23,CCCCCCS(=O)(=O)c1ccc(N)cc1,95 to 97 °C
24,Cn1nc(-c2ccc(F)cc2)c(-c2ccncc2)c1CC(=O)Cc1ccccc1,148 to 151 °C

row,Structure (SMILES),melting point
1,C=CCONC(=O)c1nc(-c2ccc(Cl)c(OC)c2F)c(F)c(N)c1Cl,184 to 186 °C
2,CCSC1=CCC2C3CCC4=CC(=O)C=CC4(C)C3C(O)CC12C (configuration not stated),216 to 218 °C
3,CNc1cc(-n2ccc3ccccc32)cc(C)n1,156 to 158 °C
4,Cc1oc(-c2ccccc2)nc1CCc1ccc(/C=C/C=C/CO)cc1,117 to 118 °C
5,CC1CCN(c2ncc(Br)cc2C=O)C1 (configuration not stated),72 to 73 °C
6,CC1(C)Oc2ccc(OC(F)F)cc2[C@@H](N2CCCCC2=O)[C@@H]1O (relative stereo),165 °C
7,CCCCN1C(N)=NS(=O)(=O)N=C1Oc1cccc(C)c1,208 to 213 °C
8,CCCCCN1C(=O)C(CCC(=O)O)(NC(=O)c2ccc(Cl)c(Cl)c2)c2ccccc21 (configuration not stated),202 to 204 °C
9,O=Cc1ccc(OCCN2OCc3ccccc3C2=O)cc1,102 °C
10,CCOC(=O)c1cccc2c1Cc1c-2[nH]c2ccc(Br)cc12,198 to 200 °C
11,COc1ccc(-c2ccc(C(=O)Nc3ccc4cc(CN5CCCC5)cnc4c3)c(F)c2)cc1,174 °C
12,CN(C)C1CCCN(C(=O)c2ccc(N)cc2)c2ccccc21 (configuration not stated),120 to 122 °C
13,CCC(=O)N1N=C(c2ccc(N)c(C)c2)c2cc3c(cc2C[C@@H]1C)OCO3,176 to 178 °C
14,CC(C)(C)c1csc(C(C#N)=C(O)c2c(F)cccc2F)n1,207 to 209 °C
15,CCCCCCC1([N+](=O)[O-])C=CC(C(=O)O)=CC1 (configuration not stated),106 to 108 °C
16,Cc1nn(S(=O)Oc2ccccc2)c2ccccc12 (configuration not stated),141 to 143 °C
17,O=C(NCCCCC1CCSS1)NN1CCCCC1 (configuration not stated),67 to 69 °C
18,COc1ccc(N2C(=O)C(=C3CCCN3C)c3ccccc32)cc1,90 to 93 °C
19,O=C(O)CN(CC(=O)O)CC(CCc1ccc([N+](=O)[O-])cc1)N(CC(=O)O)CC(=O)O (configuration not stated),188 to 189 °C
20,COc1cccc2c1nc(-c1c(F)cccc1F)n2CC=C(C)C,101 to 103 °C
21,CCN(CC)C(=O)Oc1c2c(ccc3cc(F)ccc32)nn1-c1ccc(F)cc1,159 to 160 °C
22,Fc1ccc(-n2c(OCCN3CCCC3)cc3ccc(Cl)cc32)cc1,60 to 62 °C
23,CCCC(=O)C(=O)C(CC1CCCCC1)NC(=O)C(CC(C)C)NC(=O)C(Cc1ccccc1)NC(=O)OC(C)(C)C (configuration not stated),87 to 92 °C
24,O=C(O)[C@@H](O)CNC(=O)C(F)(F)F,142 to 143 °C

row,Structure (SMILES),melting point
1,COC1NC(=O)N(C2CCCCC2)C1=O (configuration not stated),135 to 137 °C
2,CSC1=NC(=O)C(=Cc2nc(C(C)(C)C)c(O)c(C(C)(C)C)n2)S1,205 to 208 °C
3,CCc1cc(-c2cccnc2)nn1-c1ccc(NC(=O)c2cc3ccccc3n2C)cc1,178 to 179 °C
4,CSc1ccc(C(=N)Nc2ccc(F)cc2)cc1,145 to 147 °C
5,CC(C)(C#N)c1ccc(-n2c(-c3cc(-c4cnc5ccccc5c4)ccn3)c[nH]c2=O)cc1,271 °C
6,COc1cc(CON=C(CCC(=O)O)c2ccccc2)ccc1OCc1nc(-c2ccccc2)oc1C,134 to 135 °C
7,O=C(O)c1ccccc1NCCNc1ccccc1C(=O)O,248 °C
8,CS(=O)(=O)C(=C1CN(C(c2ccccc2)c2ccccc2)C1)c1cccc2cccnc12,212 °C
9,CCOC(=O)c1cc([N+](=O)[O-])ccc1NC(=O)OC(C)(C)C,118 to 121 °C
10,COc1cccc2c1CCN(C)C2CN1CCC(c2ccccc2)C1 (configuration not stated),152 to 153 °C
11,COc1cc2ncc(C#N)c(Nc3cccc(O)c3C)c2cc1OC,255 to 257 °C
12,CC(C)Oc1cc(-n2c(=O)[nH]c3c(c2=O)CCC3)c(F)cc1Cl,215 to 217 °C
13,O=C1CCCc2nc3sccc3c(NCc3ccccc3)c21,159 to 160 °C
14,O=[N+]([O-])c1cccc(C(O)C(Cl)(Cl)Cl)c1 (configuration not stated),91 to 95 °C
15,COc1ccc(S(=O)(=O)N2c3ccccc3-c3ccccc3C2c2ccccc2)cc1 (configuration not stated),145 to 147 °C
16,COc1ccc2c(c1F)C(=O)OC2=O,128 to 130 °C
17,O=C(CCC1CCNCC1)c1ccc2c(c1)NCCCC2,104 to 107 °C
18,O=CNc1cccc2ccc(O)cc12,203 to 205 °C
19,CCc1cc(N(C)Cc2ccc3oc(-c4ccccc4C#N)c(Br)c3c2)n2nccc2n1,130 to 136 °C
20,O=C(O)CCC(=O)c1ccc(-c2ccc(Br)cc2F)cc1,145 to 147 °C
21,CN1C(=O)CNC(c2cccc(Cl)c2)c2cc(C(O)(c3ccc(Cl)cc3)c3cncn3C)ccc21 (configuration not stated),208 °C
22,COC(=O)CC(NC(=O)C1CC=CCC1)C(C)=O (configuration not stated),69 to 70 °C
23,N#CC(c1ccccc1)(c1ccccc1)c1ccc([N+](=O)[O-])cn1,94 to 99 °C

# Second part, the compound after the results:
row,melting point,Structure (SMILES)
1,294 to 295 °C,N#Cc1c2cccccc-2n(CC(=O)O)c1=O
2,147 to 149 °C,COc1cc(C(=O)c2c(F)cccc2F)ccc1O
3,136 to 139 °C,CC(Oc1ncn(-c2cccc(Cl)c2)n1)C(=O)N(C)C (configuration not stated)
4,169 to 170 °C,O=C(NC1CCCC1)c1ccc2nonc2c1
5,298 to 300 °C,CCn1cc(C(=O)O)c(=O)c2cnc(N3CCN(C(C)=O)CC3)nc21
6,139 to 140 °C,NC(=NCC(F)(F)F)Nc1cncc(Cl)n1
7,294 to 295 °C,CC(=O)Nc1ccc2[nH]c(=O)c(=O)n(CC(C)(C)C)c2c1
8,125 to 126 °C,COc1ccc(CNc2c(Cl)cnn(-c3ccccc3)c2=O)cc1
9,53 to 55 °C,CC1OC(COc2ccc(Cl)cc2)OC1=O (configuration not stated)
10,70 to 72 °C,CCCCCCOc1ccc(NC(=O)CC(=O)C(C)(C)C)cc1
11,222 to 223 °C,CN(C)C(=O)Nc1c(C(=O)c2ccccc2)[nH]c2cc(Cl)ccc12
12,200 to 203 °C,NC(=O)c1nnn(Cc2ccc(C(Cl)=C(Cl)Cl)cc2)c1N
13,149 to 150 °C,Cc1cccc(-n2nc(C)cc2N)n1
14,220 to 222 °C,CCCS(=O)(=O)c1ccccc1S(=O)(=O)NC(=O)Nc1nc(Cl)cc(OCC)n1
15,171 to 173 °C,CC(C)(C)OC(=O)Cn1c(=O)c(-c2c(Cl)cccc2Cl)cc2cnc(N)nc21
16,189 to 190 °C,CN1CCc2cc(S(=O)(=O)Nc3cnc4cc(Cl)ccc4n3)ccc21

row,melting point,Structure (SMILES)
1,191 to 192 °C,Cn1c(=O)c(C(=O)C2=C(O)CCCC2=O)nc2ccccc21
2,105 to 110 °C,O=C(CSc1ccc(Cl)c(Cl)c1)C12CC3CC(CC(C3)C1)C2
3,205 to 207 °C,CCOC(=O)c1cc(-c2csc(N)n2)[nH]n1
4,166 to 171 °C,CC(=NOCc1ccccc1Nc1c(Cl)ccc(C)c1Cl)C(=O)O
5,170 to 173 °C,CCOC(=O)C(=O)Nc1cccc(OC)c1C(N)=O
6,228 to 231 °C,COc1ccc2c3c(oc2c1)CCC(C(=O)O)=C3
7,152 to 153 °C,CCOCCc1nc(NS(=O)(=O)c2cccc(Cl)c2C)sc1CN(C)C
8,227 °C,O=C(O)CNC1CCCc2ccccc21 (configuration not stated)
9,58 to 65 °C,CC(=O)c1ccc(Cl)cn1
10,140 to 142 °C,CCOC(=O)c1ccc(N2CCC(NC(=O)OC(C)(C)C)CC2)nc1
11,90 to 92 °C,COc1ccc2c(c1)c(CC(=O)O)c(C)n2C(=O)c1cccc(Cl)c1
12,160 to 161 °C,OCc1c(Cl)nc(C2CCCCC2)n1Cc1ccccc1
13,267 to 268 °C,Cc1nnc(-c2[nH]c3ccccc3c2Cl)o1
14,136 to 138 °C,O=C(O)c1ccc(C(F)(F)F)cc1[N+](=O)[O-]
15,220 to 221 °C,Clc1ccc(Nc2nnc(Cc3ccncc3)c3ccncc23)cc1

# Source: a melting point compilation (Tetko et al.; mined from patent text by program, amines drawn as free bases though some values may be those of a salt)
